The source of these data is patent EP0876161B1, “CONTRAST MEDIA” (priority 1996, dated 1997).

One data set relates to mice. The data set is described as follows: Maximum tolerated dose (MTD) in mice of formulated complex solution. Type of data set: in vivo. To be noted: complex given as the formulated solution.
A short description of data set [1]: Osmolality of the formulated complex solution. Type of data set: physicochemical.
Data set [2] in a line: Osmolality determined in water, compared to the EGTA complex. Type of data set: physicochemical. The conditions noted are these: concentration 41 mM.

Bounds are passed on as bounds.

“Na4[(W3SO3)2(PDTA)3] [Na4[(W3SO3)2(PDTA)3] 11H2O]”: in the data set with mice, the “maximum tolerated dose (MTD)” value was over 6.5 mmoles complex/kg. The substance also had an osmolality in data set [1] (79mM solution, pH 6.6) of 311 mmol/kg.

“Na4[(W3SO3)2(EGTA)3] [Na4[(W3SO3)2(EGTA)3].10H2O]”: the osmolality in data set [2] came out at 199 mmol/kg; in data set [1] (168 mM solution, pH 6.65), 685 mmol/kg. In addition, the “maximum tolerated dose (MTD)” value in the data set on mice is recorded as about 7.75 mmoles complex/kg.

As for “Na4[(W3SO3)2(MeO-PDTA)3] [Na4[(W3SO3)2(MeO-PDTA)3] . 7H2O]”, in data set [1] (140mM solution, pH 6.5), the osmolality amounted to 563 mmol/kg.

As for “Na4[(W3SO3)2(OBETA)3] [Na4[(W3SO3)2(OBETA)3].10H2O]”, the “maximum tolerated dose (MTD)” value with mice is -4.35 mmoles complex/kg. This substance returned an osmolality in data set [1] (107 mM solution, pH 7.03) of 498 mmol/kg.

For the substance (NMG)4[(W3SO3)2(HO-PDTA)3], the “maximum tolerated dose (MTD)” value in the data set on mice is listed as about 2.17 mmoles complex/kg. Further, the osmolality in data set [1] (153mM solution, pH 6.98) came to 499 mmol/kg.

Regarding “Na4[(W3SO3)2(BDTA)3] [Na4[(W3SO3)2(BDTA)3].12H2O]”, in the data set with mice, the “maximum tolerated dose (MTD)” value is given as ~ 2.55 mmoles complex/kg. In data set [1] (120mM solution, pH 7.4), the osmolality is 459 mmol/kg.

As to “Na4[(W3S3O)2(EGTA)3] [Na4[(W3S3O)2(EGTA)3] .6H2O]”, the “maximum tolerated dose (MTD)” value in the data set with mice is on record as about 3.95 mmoles complex/kg. Besides, the osmolality in data set [1] (121 mM solution, pH 6.95) stood at 517 mmol/kg.
